The results in this text go back to patent US8962637B2, “Bicyclic compounds and their uses as dual c-SRC/JAK inhibitors” (Debiopharm S.A., priority 2010, dated 2015).

In one series the test system is A549 tumor cells. Kind of series: A549 xenograft model. In kind it is in vivo. As to the method: Sub-cutaneous (SC) injection of 5×10^6 A549 tumor cells on the left flank of 48 female athymic nude mice. Randomization of mice 14 days after tumor cell injection into 6 groups of 8 mice each with a mean tumor volume of 134±5 mm3.
Formulation: 20% HPC, 2% ethanol solution in PBS for the compounds No. 45, 117 and 179.
• Normal saline for Erlotinib® Dosing route: Oral for the compounds No. 45, 117 and 179, and Erlotinib® Dose Volume: 10 mL/Kg body weight Dosing schedule: Once daily for 14 consecutive days (Q1Dx14) Dosage: • Group1. Vehicle control • Group2. Erlotinib®-100 MPK • Group3. Compound No. 45—10 MPK • Group4. Compound No. 45—30 MPK • Group5. Compound No. 45—100 MPK • Group6. Compound No. 117—30 MPK • Group7. Compound No. 117—100 MPK • Group8. Compound No. 179—10 MPK • Group9. […] Plasma collected for drug concentration estimation and whole blood was collected to isolate PBMCs (peripheral blood monocytes) to determine pStat3 inhibition by flow cytometry as PD readout. Tumors were snap frozen in liquid nitrogen and stored at −80° C. to estimate pStat3 by flow cytometry as PD readout EXPT. 2
SC injection of 5×10^6 A549 tumor cells on the left flank of 24 female athymic nude mice. Randomization of mice 14 days after tumor cell injection into 3 groups of 8 mice each with a mean tumor volume of 75±7 mm3.
Formulation: 20% HPC, 2% ethanol solution in PBS for the compound No. 45
• Normal saline for Erlotinib® Dosing route: Oral for compound No. 45 and Erlotinib® Dose Volume: 10 mL/Kg body weight Dosing schedule: Once daily for 14 consecutive days (Q1Dx14) Dosage: • Group1. Vehicle control • Group2. Compound No. 45—150 MPK • Group3. […] Plasma collected for drug concentration estimation and whole blood was collected to isolate PBMCs to determine pStat3 inhibition by flow cytometry as PD readout. Tumors were snap frozen in liquid nitrogen and stored at −80° C. to estimate pStat3 by flow cytometry as PD readout Results: […]

The next series has as its system pStat3. Nature of the series: Quantification of pStat3 in tumors by flow cytometry. In kind it is in vivo, mice. As to the method:
Measured pStat3 using FACS caliber machine (BD). Unstained PBMCs was used for cytometry settings. […] Histograms (cell number V/s FL1-H) were plotted. Percentage of cells that are phosphorylated by IL6 stimulation (M2 population), and inhibition of phosphorylation by inhibitor (decrease in M2 population) are calculated on histogram by marking peaks, M1 and M2.
Separate the tumour & 200 mg of tumour was crashed (45 mg per ml) by using IKA 10 at Speed #4 for 10 seconds. Sieve the tumour extract through 100 u, centrifuge at 900 g for 10 min. Re-suspend cells briefly in 0.5-1 ml PBS. Add formaldehyde to a final concentration of 2-4% formaldehyde. Fix for 10 minutes at 37° C. Chill tubes on ice for 1 minute.
Permeabilize cells by adding ice-cold 100% methanol slowly to pre-chilled cells, while gently vortexing, to a final concentration of 90% methanol. Alternatively, to remove fix prior to permeabilization, pellet cells by centrifugation and re-suspend in 90% methanol. Incubate 30 minutes on ice. Proceed with staining or store cells at −20° C. in 90% methanol. Aliquot 0.5-1×10^6 cells into each assay tube (by volume). Add 2-3 ml Incubation Buffer to each tube and rinse by centrifugation. Repeat. Re-suspend cells in 100 μl Incubation Buffer per assay tube. Analyze by flow cytometry like PBMCs.
(In general: A flow cytometer gives signals particle by particle.)

A short description of series [1]: MTD / tolerance in athymic mice. The conditions noted are these: once-daily 14 days treatment in athymic mice.
Another series is described as follows: Volume distribution. As to conditions: in vivo. From the text: Table 8 provides some volume distribution values of the compounds of the present invention.
For another series, the system named is A549 cells. Kind of series: Cell viability assay (XTT assay), A549. The format is cell-based. As to conditions: Homo sapiens, 72 hrs.
A further series relates to A431 cancer cell line. Kind of series: Inhibition of cell growth in A431. As to conditions: Homo sapiens, A-431. In kind it is cell-based.
The target in the next series is JAK2 (Homo sapiens (Human), UniProt O60674). Kind of series: TR-FRET JAK2 kinase assay. The format is biochemical. The conditions noted are these: ATP 10 μM. As to the method: Compounds were screened in the TR-FRET assay for JAK2 and c-Src kinase inhibition. Ultra light poly GT (Perkin Elmer) was used as the substrate for JAK2 and c-Src with the ATP concentration of 10 μM and 50 μM, respectively. […] The dose-response curve fitting was done using GraphPad Prism software.
JAK2, sequence (O60674 whole entry): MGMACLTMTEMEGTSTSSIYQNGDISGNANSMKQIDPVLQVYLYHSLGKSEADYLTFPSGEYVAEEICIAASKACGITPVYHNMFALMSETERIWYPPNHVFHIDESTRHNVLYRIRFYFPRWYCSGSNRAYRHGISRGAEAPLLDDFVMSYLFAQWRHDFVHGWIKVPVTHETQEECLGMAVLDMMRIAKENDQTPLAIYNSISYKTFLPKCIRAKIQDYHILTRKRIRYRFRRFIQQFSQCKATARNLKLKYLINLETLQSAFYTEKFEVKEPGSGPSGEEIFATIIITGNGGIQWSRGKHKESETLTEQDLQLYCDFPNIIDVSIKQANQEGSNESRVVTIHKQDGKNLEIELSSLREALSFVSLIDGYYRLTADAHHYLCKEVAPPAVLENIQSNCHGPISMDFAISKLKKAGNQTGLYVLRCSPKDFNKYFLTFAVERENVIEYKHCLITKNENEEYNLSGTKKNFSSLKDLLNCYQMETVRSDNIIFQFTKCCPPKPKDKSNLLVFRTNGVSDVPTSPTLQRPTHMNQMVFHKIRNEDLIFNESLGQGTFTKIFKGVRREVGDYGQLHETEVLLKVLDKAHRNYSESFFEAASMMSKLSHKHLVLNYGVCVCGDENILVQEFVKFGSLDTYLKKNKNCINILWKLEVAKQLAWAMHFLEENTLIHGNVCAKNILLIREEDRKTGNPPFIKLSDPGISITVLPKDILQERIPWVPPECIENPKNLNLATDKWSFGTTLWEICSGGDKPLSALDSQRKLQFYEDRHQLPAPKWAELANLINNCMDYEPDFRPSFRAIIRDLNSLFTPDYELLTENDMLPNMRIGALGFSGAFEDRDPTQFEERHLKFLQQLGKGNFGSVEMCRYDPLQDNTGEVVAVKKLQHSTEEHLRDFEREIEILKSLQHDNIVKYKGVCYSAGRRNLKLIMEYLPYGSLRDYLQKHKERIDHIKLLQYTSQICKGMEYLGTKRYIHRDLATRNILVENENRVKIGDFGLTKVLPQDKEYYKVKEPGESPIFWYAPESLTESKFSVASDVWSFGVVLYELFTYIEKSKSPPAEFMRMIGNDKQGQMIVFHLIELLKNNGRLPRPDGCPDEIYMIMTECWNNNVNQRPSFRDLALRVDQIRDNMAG

As a reminder, the Vd is a proportionality between amount in the body and measured concentration, not a real space. Usually EC50 stands for the concentration needed to bring the measured effect to its halfway point. The IC50 is the point on the concentration scale where inhibition reaches its midpoint. With `Cc1ccc(NC(=O)c2cccc(C(F)(F)F)c2)cc1N1CCc2nc(Nc3ccc(N4CCN(C)CC4)cc3)ncc2C1=O` [Compound 45, N-(4-Methyl-3-{2-[4-(4-methyl-piperazin-1-yl)-phenylamino]-5-oxo-7,8-dihydro-5H-pyrido[4,3-d]pyrimidin-6-yl}-phenyl)-3-trifluoromethyl-benzamide], the “% TGI (Tumor Growth Inhibition)” value in the series with A549 tumor cells (A549 Xenograft model, 10 MPK) is 28.90%; with A549 tumor cells (A549 Xenograft model, 30 MPK) it was 55.62%; in the series on A549 tumor cells (A549 Xenograft model, 100 MPK), 63.86%; with A549 tumor cells (A549 Xenograft model, 150 MPK), 53.74%. Further, the TGI in the series on A549 tumor cells (A549 Xenograft model, 150 MPK) is 54; in the series on A549 tumor cells (Efficacy - A549, at 100 MPK), 64% at. The tumor growth inhibition in the series with A549 tumor cells (A549 xenograft model, 100 MPK (Q1Dx14)) was 64%. For the same compound, the compound related toxicity entry with A549 tumor cells (up to 150 MPK during A549 efficacy study) is “No major effects of compound related toxicity”. Also, the “Tumors % pStat3 inhibition” value in the series with pStat3 (A431 Xenograft model, 100 MPK) turned out to be 44.3%; in the series on pStat3 (A549 Xenograft model, 10 MPK), 44.46%; in the series on pStat3 (A549 Xenograft model, 30 MPK) it was 48.92%; in the series on pStat3 (A549 Xenograft model, 100 MPK) it was 61.51%; in the series with pStat3 (A549 Xenograft model, 150 MPK) it was 57.08%. The “% pSTAT3 inhib. (tumour)” value in the series on pStat3 (Efficacy - A431 at 100 MPK) is given as 45%; with pStat3 (Efficacy - A549, at 100 MPK), 62% at. Further, the “toxicity effects on major organs” value in series [1] is recorded as “does not cause pronounced toxicity effects on major organs”. This compound also displayed a Vd in the series “Volume distribution” of 5.89 L/kg. Further, the results for the EC50 in the series with A549 cells and in the series on A431 cancer cell line were 1070 nM and 1400 nM, respectively. Also, at JAK2, the half-maximal inhibitory concentration (IC50) is 15 nM.

In the series with A549 tumor cells (Efficacy - A549, at 100 MPK), `Cc1ccc(NC(=O)c2cccc(C(F)(F)F)c2)cc1N1CCc2nc(Nc3ccc(C(=O)NC4CC4)nc3)ncc2C1` [Compound 117, 5-{6-[2-Methyl-5-(3-trifluoromethyl-benzoylamino)-phenyl]-5,6,7,8-tetrahydro-pyrido[4,3-d]pyrimidin-2-ylamino}-pyridine-2-carboxylic acid cyclopropylamide] returned a TGI of 56% at. Moreover, the “% pSTAT3 inhib. (tumour)” value with pStat3 (Efficacy - A431 at 100 MPK) was 10%; in the series on pStat3 (Efficacy - A549, at 100 MPK), 47% at. In addition, the EC50 in the series with A549 cells was found to be 25 nM; with A431 cancer cell line it was 330 nM. The same compound returned an IC50 against JAK2 of 18 nM.

The term inhibition denotes the drop in the measured response relative to a control, in per cent. For `CNC(=O)c1ccc(Nc2ncc3c(n2)CCN(c2cc(NC(=O)c4cc(C(F)(F)F)ccn4)ccc2Cl)C3)cc1` [Compound 179, 4-Trifluoromethyl-pyridine-2-carboxylic acid {4-chloro-3-[2-(4-methylcarbamoyl-phenylamino)-7,8-dihydro-5H-pyrido[4,3-d]pyrimidin-6-yl]-phenyl}-amide], the TGI with A549 tumor cells (Efficacy - A549, at 30 MPK) came out at 68% at. Also, the “% pSTAT3 inhib. (tumour)” value in the series with pStat3 (Efficacy - A431 at 100 MPK) is 54%; with pStat3 (Efficacy - A549, at 30 MPK) it was 79% at. The IC50 at JAK2 was 6.4 nM. The inhibition at 0.1 µM at JAK2 (read-out: JAK2 % inhibition at 100 nM, 100 nM) came out at 81%. Moreover, the inhibition at 1 µM at JAK2 (read-out: JAK2 % inhibition at 1 μM, 1 μM) amounted to 92%.
